Experimental data as given in publication PMC7907166, “AOA-2 Derivatives as Outer Membrane Protein A Inhibitors for Treatment of Gram-Negative Bacilli Infections” (Frontiers in Microbiology, 2021).
Positions of bridges follow the written chain, without caps; N, C: chain ends. Non-standard residues stand in square brackets, D forms with d. Residues, ends and D or L forms follow the SMILES beside them. *: point of attachment. X1 = CC[C@H](C)CCCCC(=O)*; Dab = NCC[C@H](N)C(=O)O

Assays:
[1] = test system: A. baumannii ATCC 17978; assay type: cell-based; settings: microdilution, two independent experiments; for MIC of colistin in presence of peptide: peptide added at 125 μg/mL
Method: The minimal inhibitory concentration (MIC) of colistin in absence and presence of RW01 or RW06 at […] for A. baumannii ATCC 17978 strain was determined by microdilution assay in two independent experiments as previously reported ([Parra-Millán et al., 2018]).

[2] = test system: OmpA-deficient mutant A. baumannii, JPAB01; assay type: cell-based; settings: for MIC of colistin in presence of peptide: peptide added at 125 μg/mL, did not change the activity
[3] = test system: A. baumannii ATCC 17978; assay: Bacterial adhesion assay to A549 cells; assay type: cell-based; settings: for adherence of A. baumannii to A549 cells reduced to: bacteria pre-incubated with peptide 250 μg/mL 30 min, MOI 500, 2 h, CFU count; for adherence of ATCC 17978 to A549 cells compared with AOA-2: peptide 125, 62.5 and 31.25 μg/mL, except RW06 at 31.25 μg/mL, Figure 2B
Method: (§1) The human pneumocyte cell line type II A549, derived from a human lung carcinoma, obtained from the American Type Culture Collection was used and cultured in DMEM medium (Invitrogen, Spain) supplemented with 10% of heat-inactivated fetal bovine serum, 50 μg/mL vancomycin (Laboratorios Normon, Spain), 20 μg/mL gentamicin (Normon Laboratories, Spain), 0.25 μg/mL amphotericin B mL (Invitrogen, Spain) and 1% HEPES (Invitrogen, Spain) in a humidified incubator, 5% CO2 at 37°C. Routine passage of A549 cells was performed every 3–4 days. Cells were seeded 24 h in 96-well plates (Sarstedt, Germany) for the cell viability assay, and in 24-well plates (Sarstedt, Germany) for the bacterial adhesion assays.
(§2) A. baumannii ATCC 17978, P. aeruginosa PAO1 and E. coli ATCC 25922 strains were incubated with AOA-2 (31.25, 62.5, 125, and 250 μg/mL, 30 min), AOA-2 derivatives RW01, RW02, RW03, RW06, RW07, RW08, RW09, RW10, RW11, and RW13 (250 μg/mL, 30 min), or AOA-2 derivatives RW01, RW02, RW03, RW06 (31.25, 62.5, and 125 μg/mL, 30 min), and added at 10^8 CFU/mL, corresponding to a multiplicity of infection (MOI) of 500, to the A549 cells for 2 h at 5% CO2 and 37°C. Subsequently, infected A549 cells were washed five times with prewarmed PBS 1X and lysed with 0.5% Triton X-100. Serial dilutions of these lysates were made and plated on blood agar plates (Blood-Agar Columbia, Becton Dickinson Microbiology Systems, United States) and incubated at 37°C for 24 h for colony counting and then determination of CFU/mL that attached to A549 cells.

[4] = test system: E. coli ATCC 25922; assay: Bacterial adhesion assay to A549 cells; assay type: cell-based; settings: for adherence of E. coli to A549 cells reduced to: bacteria pre-incubated with peptide 250 μg/mL 30 min, MOI 500, 2 h, CFU count; for adherence of ATCC 25922 to host cells compared with AOA-2: peptide 125, 62.5 and 31.25 μg/mL, Figure 2B; for adherence of ATCC 25922 strain to A549 cells (in words): peptide 250 μg/mL, 30 min, Figure 2A
Method: as §1, §2

[5] = test system: P. aeruginosa PAO1; assay: Bacterial adhesion assay to A549 cells; assay type: cell-based; settings: for adherence of P. aeruginosa to A549 cells reduced to: bacteria pre-incubated with peptide 250 μg/mL 30 min, MOI 500, 2 h, CFU count; for adherence of PAO1 strain to A549 cells compared with AOA-2: peptide 125, 62.5 and 31.25 μg/mL, some statistical differences, Figure 2B; for adherence of PAO1 strain to A549 cells (in words): peptide 250 μg/mL, 30 min, Figure 2A
Method: as §1, §2

[6] = test system: A. baumannii ATCC 17978; assay: Bacterial cytotoxicity: viability of infected A549 cells (MTT); assay type: cell-based; settings: for cell viability of infected A549 cells with respect to untreated strain: 24 h infection
Method: (§3) A549 cells were incubated with the peptide derivatives RW01, RW02, RW03, RW06, RW07, RW08, RW09, RW10, RW11, and RW13 (0, 3.5, 7, 15, 35, 62, 125, 250, and 500 μg/mL) for 24 h with 5% CO2 at 37°C. Prior the evaluation of the peptides cytotoxicity, A549 cells were washed three times with prewarmed PBS 1X. Subsequently, quantitative cytotoxicity was evaluated by measuring the mitochondrial reduction activity using the 3-(4,5-dimethylthiazol-2-yl)-2,5-diphenyltetrazolium bromide (MTT) assay as described previously ([Smani et al., 2013]). The percentage of […] was calculated from the absorbance at 570 nm as follow: [(Absorbance 570 nm of treated cells/Absorbance 570 nm mean of untreated cells) × 100].
(§4) A549 cells were infected with 10^8 CFU/mL, corresponding to a MOI of 500, of A. baumannii ATCC 17978, P. aeruginosa PAO1 and E. coli ATCC 25922 strains pretreated with AOA-2 or AOA-2 derivatives RW01, RW02, RW03, and RW06 (31.25, 62.5, and 125 μg/mL, 30 min) for 24 h with 5% CO2 at 37°C. Prior to the evaluation of bacterial cytotoxicity, viable bacteria are first removed from A549 cell culture by washing these A549 cells five times with PBS 1X. Subsequently, cell viability was evaluated as described above.

[7] = test system: E. coli ATCC 25922; assay: as above; assay type: cell-based; settings: for cell viability of infected A549 cells with respect to untreated strain: ATCC 25922 pretreated with peptide 125, 62.5 and 31.25 μg/mL, 24 h infection
Method: as §3, §4

[8] = test system: P. aeruginosa PAO1; assay: as above; assay type: cell-based; settings: 24 h infection
Method: as §3, §4

[9] = test system: A549 cells; parameters: method as in Vila-Farrés et al., 2017; settings: cited from earlier work
[10] = test system: A. baumannii, P. aeruginosa, and E. coli; settings: in vivo administration, ref Vila-Farrés et al., 2017, cited from earlier work
Description: This study focuses on the paradigm of interference in pathogenesis, that is, disarming pathogenic bacteria by neutralizing their virulence factors ([Dickey et al., 2017]).

[11] = test system: A. baumannii; parameters: method as in Parra-Millán et al., 2018; settings: ref Parra-Millán et al., 2018; cited from earlier work
Description: Therefore, we thought it would be interesting to examine the capacity of RW01 and RW06 to potentiate the activity of colistin against A. baumannii ATCC 17978 strain.

[12] = test system: colistin-resistant A. baumannii; settings: ref Parra-Millán et al., 2018; cited from earlier work
Description: The therapeutic efficacy of these […] should also be further evaluated in combination with antimicrobial agents used in the clinical setting.

[13] = ATCC 17978 pretreated with peptide 125 μg/mL only

Molecule: CC[C@H](C)CCCCC(=O)N[C@@H](CCN)C(=O)N[C@H](C(=O)N[C@@H](CCN)C(=O)N[C@H]1CCNC(=O)[C@H]([C@@H](C)O)NC(=O)[C@H](CCN)NC(=O)[C@H](CCN)NC(=O)[C@H](CC(C)C)NC(=O)[C@@H](CC(C)C)NC(=O)[C@H](CCN)NC1=O)[C@@H](C)O [colistin, reference compound] (X1-[Dab]T[Dab][Dab][Dab][dL]L[Dab][Dab]T; lactam 4-C (inferred); N-terminus assumed)
- MIC of colistin ([1]; colistin alone): 0.5 µg/mL
- MIC of colistin ([2]; colistin alone, microdilution): 0.0625 µg/mL

Molecule: &2Nal-D-Pro-Arg-2Nal-D-Pro-Arg& (head to tail) [RW03, AOA-2 derivative with tryptophan analog 2Nal]
- adherence of A. baumannii to A549 cells reduced to [3]: 55.47%
- adherence of E. coli to A549 cells reduced to [4]: 29.62%
- adherence of ATCC 25922 to host cells compared with AOA-2 [4]: reduced with some statistical differences
- adherence of P. aeruginosa to A549 cells reduced to [5]: 20.71%
- adherence of PAO1 strain to A549 cells compared with AOA-2 [5]: reduced better

Molecule: &2Nal-D-Pro-Arg-3Pal-D-Pro-Arg& (head to tail) [RW11]
- adherence of PAO1 strain to A549 cells (in words) [5]: reduced

Molecule: &3Pal-D-Pro-Arg-3Pal-D-Pro-Arg& (head to tail) [RW02, AOA-2 derivative with tryptophan analog 3Pal]
- adherence of A. baumannii to A549 cells reduced to [3]: 43.58%
- adherence of E. coli to A549 cells reduced to [4]: 61.11%
- adherence of P. aeruginosa to A549 cells reduced to [5]: 42.51%
- adherence of PAO1 strain to A549 cells compared with AOA-2 [5]: reduced better

Molecule: &3Pal-D-Pro-Arg-Trp-D-Pro-Tyr& (head to tail) [RW13]
- adherence of ATCC 25922 strain to A549 cells (in words) [4]: reduced
- adherence of PAO1 strain to A549 cells (in words) [5]: reduced

Molecule: &Arg-D-Pro-Trp-Trp-D-Pro-Arg& (head to tail) [RW08]
- adherence of ATCC 17978 strain to A549 cells (in words) ([3]; peptide 250 μg/mL, 30 min, Figure 2A): reduced
- adherence of PAO1 strain to A549 cells (in words) [5]: reduced

Molecule: &Trp-(NH2) D-Pro-Arg-Trp-D-Pro-Arg& (head to tail) [RW01, AOA-2 derivative, solubility enhanced by the addition of NH2 group]
- adherence of A. baumannii to A549 cells reduced to [3]: 26.18%
- adherence of ATCC 17978 to A549 cells compared with AOA-2 [3]: reduced non-statistically
- adherence of E. coli to A549 cells reduced to [4]: 66.66%
- adherence of ATCC 25922 to host cells compared with AOA-2 [4]: reduced with some statistical differences
- adherence of P. aeruginosa to A549 cells reduced to [5]: 40.08%
- adherence of PAO1 strain to A549 cells compared with AOA-2 [5]: reduced better
- cell viability of infected A549 cells with respect to untreated strain [6, 13]: increased significantly
- cell viability of infected A549 cells with respect to untreated strain [7]: increased significantly
- protection from cell death caused by ATCC 25922 compared with AOA-2 ([7]; peptide 62.5 and 31.25 μg/mL): more protective
- cell viability of infected A549 cells with respect to untreated strain ([8]; PAO1 pretreated with peptide 125 and 62.5 μg/mL (31.25 μg/mL excepted)): increased significantly
- MIC of colistin in presence of peptide [1]: 0.015 µg/mL
- MIC of colistin in presence of peptide [2]: 0.0625 µg/mL

Molecule: &Trp-D-Pro-Arg-Trp-D-Pro-Arg& (head to tail) [AOA-2]
- adherence of A. baumannii to A549 cells reduced to [3]: 36.62%
- adherence of E. coli to A549 cells reduced to [4]: 65.05%
- adherence of P. aeruginosa to A549 cells reduced to [5]: 84.47%
- cell viability of infected A549 cells with respect to untreated strain ([6]; ATCC 17978 pretreated with peptide 125, 62.5 and 31.25 μg/mL, 30 min): did not increase significantly
- cell viability of infected A549 cells with respect to untreated strain [7]: did not increase significantly
- cell viability of infected A549 cells with respect to untreated strain ([8]; PAO1 pretreated with peptide 125, 62.5 and 31.25 μg/mL): did not increase significantly
- toxicity in human lung epithelial cells [9]: did not show toxicity
- mice mortality ([10]; especially in A. baumannii): significant decrease
- bacterial load in tissues [10]: large decrease
- synergy with colistin [11]: synergize with colistin
- therapeutic efficacy when combined with colistin [12]: good therapeutic efficacy

Molecule: &Trp-D-Pro-Dab-Trp-D-Pro-Dab& (head to tail) [RW06, AOA-2 derivative with arginine analog Dab]
- adherence of A. baumannii to A549 cells reduced to [3]: 32.83%
- adherence of ATCC 17978 to A549 cells compared with AOA-2 [3]: reduced non-statistically
- adherence of E. coli to A549 cells reduced to [4]: 44.44%
- adherence of ATCC 25922 to host cells compared with AOA-2 [4]: reduced with some statistical differences
- adherence of P. aeruginosa to A549 cells reduced to [5]: 31.14%
- adherence of PAO1 strain to A549 cells compared with AOA-2 [5]: reduced better
- cell viability of infected A549 cells with respect to untreated strain [6, 13]: increased significantly
- protection from cell death caused by ATCC 17978 compared with AOA-2 ([6]; peptide 62.5 μg/mL): protected more significantly
- cell viability of infected A549 cells with respect to untreated strain [7]: did not increase significantly
- cell viability of infected A549 cells with respect to untreated strain ([8]; PAO1 pretreated with peptide 62.5 and 31.25 μg/mL (125 μg/mL excepted)): did not increase significantly
- MIC of colistin in presence of peptide [1]: 0.015 µg/mL
- MIC of colistin in presence of peptide [2]: 0.0625 µg/mL

Molecule: &Trp-D-Pro-Lys-Trp-D-Pro-Lys& (head to tail) [RW07, AOA-2 derivative with arginine analog lysine]
- adherence of ATCC 25922 strain to A549 cells (in words) [4]: reduced
- adherence of PAO1 strain to A549 cells (in words) [5]: reduced

Molecule: &Trp-D-Pro-Trp-Arg-D-Pro-Arg& (head to tail) [RW09]
- adherence of PAO1 strain to A549 cells (in words) [5]: reduced

Molecule: &Tyr-D-Pro-Ala-Tyr-D-Pro-Ala& (head to tail) [RW10]
- adherence of PAO1 strain to A549 cells (in words) [5]: reduced
